Data reported in patent publication US20240426807A1, “SCREENING SYSTEM” (Givaudan SA, priority 2021, published 2024).
“Also recorded” adds a separate entry of the source.

How the values were obtained:
Assay type in all cases: cell-based
OR5AN1 = target: T1, OR5AN1 (Homo sapiens, UniProt Q8NGI8); experiment: Ligand-induced OR-dependent puromycin resistance, OR5AN1 cells; settings: HEK293T, pGL4.29-CRE-Puro-Hygro-OR with OR5AN1; musk ketone 10 μM, eugenol or isoeugenol 1 μM, ultravanil 100 μM; puromycin 0.015-16 μg/ml; PrestoBlue viability day 4
T1 construct: expressed in transfected cells
T1 sequence (Q8NGI8 1-311): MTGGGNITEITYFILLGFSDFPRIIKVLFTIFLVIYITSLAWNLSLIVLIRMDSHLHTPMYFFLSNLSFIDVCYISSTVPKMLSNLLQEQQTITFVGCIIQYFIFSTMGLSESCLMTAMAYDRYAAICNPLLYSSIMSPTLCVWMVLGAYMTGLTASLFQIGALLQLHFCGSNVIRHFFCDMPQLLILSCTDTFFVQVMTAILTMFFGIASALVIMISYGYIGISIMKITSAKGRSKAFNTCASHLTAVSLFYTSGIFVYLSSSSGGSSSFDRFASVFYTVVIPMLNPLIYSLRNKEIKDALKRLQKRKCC
Method: (§1) Stable clones selected with hygromycin containing a stable insertion of the pGL4.29-CRE-Puro-Hygro-OR construct described in Example 1 with either one of the receptors OR10G7, OR10G9 or OR5AN1 (NCBI Genbank Gene ID 390265, 219870 and 390195) were plated at a density of 3000 cells/per well in 200 μl Dubelcco's Modified Eagle medium (DMEM) in polyethyleneimide-coated, white 96 well microtiter plates with a transparent bottom. After cells were allowed to adhere for 24 h, they were exposed to different odorants (musk ketone at 10 μM, eugenol or isoeugenol at 1 μM, ultravanil or vanitrope at 100 μM). 7 h after odorant addition, 100 μl of the medium was removed and replaced with fresh medium with the same odorant concentrations and, in addition, puromycin to reach a final concentration of 0.015-16 μg/ml in 11 twofold dilution steps (day 1 of selection). On day 2 and 3, 100 μl of the medium was again removed and replaced with fresh medium with the same concentration of odorant and puromycin. On day 4 of the selection, medium from each well was removed completely, 100 ul PrestoBlue® cell viability reagent (ThermoFisher Scientific, Catalog No: 14200-083) diluted in phosphate buffered saline was added to each well and cells were incubated at 37° C. until a color change was visible in the wells containing no puromycin. The fluorescence was determined at 560 excitation and 590 nm emission to assess relative cell metabolic activity, which is the net result of cell growth and cell killing in presence of the different puromycin concentrations. The result was expressed as % viability relative to controls with no cells (0%) and cells treated with olfactory ligand only (100%).

OR10G9 = target: T2, OR10G9 (Homo sapiens, UniProt Q8NGN4); experiment: Ligand-induced OR-dependent puromycin resistance, OR10G9 cells; settings: HEK293T, pGL4.29-CRE-Puro-Hygro-OR with OR10G9; musk ketone 10 μM, eugenol or isoeugenol 1 μM, ultravanil or vanitrope 100 μM; puromycin 0.015-16 μg/ml; PrestoBlue viability day 4
T2 construct: expressed in transfected cells
T2 sequence (Q8NGN4 1-311): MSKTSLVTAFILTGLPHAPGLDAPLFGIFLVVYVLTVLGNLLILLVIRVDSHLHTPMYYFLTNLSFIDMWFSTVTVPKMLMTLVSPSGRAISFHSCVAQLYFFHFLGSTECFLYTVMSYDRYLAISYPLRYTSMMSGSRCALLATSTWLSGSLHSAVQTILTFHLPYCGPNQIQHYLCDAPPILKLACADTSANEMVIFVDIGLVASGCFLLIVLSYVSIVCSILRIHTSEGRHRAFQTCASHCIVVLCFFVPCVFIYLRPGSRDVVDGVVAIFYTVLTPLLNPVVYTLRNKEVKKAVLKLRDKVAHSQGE
Method: as §1

OR10G7 = target: T3, OR10G7 (Homo sapiens, UniProt Q8NGN6, T5S); experiment: Ligand-induced OR-dependent puromycin resistance, OR10G7 cells; settings: HEK293T, pGL4.29-CRE-Puro-Hygro-OR with OR10G7; musk ketone 10 μM, eugenol or isoeugenol 1 μM, ultravanil or vanitrope 100 μM; puromycin 0.015-16 μg/ml; PrestoBlue viability day 4
T3 construct: expressed in transfected cells
T3 sequence (Q8NGN6 1-311 T5S): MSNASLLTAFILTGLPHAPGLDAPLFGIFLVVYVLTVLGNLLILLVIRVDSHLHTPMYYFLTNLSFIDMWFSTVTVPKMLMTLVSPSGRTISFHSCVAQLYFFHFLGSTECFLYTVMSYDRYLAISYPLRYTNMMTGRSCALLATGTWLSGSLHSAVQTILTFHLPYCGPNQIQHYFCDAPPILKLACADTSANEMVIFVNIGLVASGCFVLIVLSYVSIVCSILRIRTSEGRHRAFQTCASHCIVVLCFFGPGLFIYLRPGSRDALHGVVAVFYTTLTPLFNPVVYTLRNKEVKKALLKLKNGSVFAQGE
Method: as §1

Structure (SMILES)	puromycin resistance in presence of odorant versus solvent control (OR5AN1)	puromycin resistance in presence of odorant versus solvent control (OR10G9)	puromycin resistance in presence of odorant versus solvent control (OR10G7)
C=CCc1ccc(O)c(OC)c1 [eugenol]	do not increase resistance over solvent control; also recorded: the resistance was equal to the solvent control	no increased resistance	increased resistance to puromycin; also recorded: strongly enhanced puromycin resistance
CC(=O)c1c(C)c([N+](=O)[O-])c(C(C)(C)C)c([N+](=O)[O-])c1C [musk ketone]	increased resistance to puromycin; also recorded: enhanced puromycin resistance	no increased resistance	does not increase resistance over solvent control; also recorded: no induced puromycin resistance over solvent control
